This is an account of results in patent US20170073679A1, “Compositions and Methods for Selective Delivery of Oligonucleotide Molecules to Cell Types” (nLife Therapeutics, S.L., priority 2012, published 2017).

Data set [1] has as its target human recombinant GHS-R1a (Homo sapiens, UniProt Q92847). As to conditions: cited from earlier work.
The subject of the next data set is rat pituitary cells. The following applies: read-out: EC50, stimulates GH release; cited from earlier work.
Data set [2] relates to obese animals (high fat diet). Kind of data set: Physiological effect of tabimorelin conjugated antisense oligonucleotides in a high-fat diet model of obesity. In kind it is in vivo. The following applies: 10 doses in 12 days of 30 μg intranasally. On the procedure: Animals were fed a high fat diet (HFD) (TD.06414, 60% fat, Harlan) or a standard diet (Control diet: 2014, Harlan) for 12 weeks. Those obese animals that weighed more than the mean body weight of the lean animals plus 2 times the lean standard deviation were selected:
Obese BW>lean BW mean+2×lean SD
The day of administration animals were fasted for 8 hours. Under isofluorane anesthesia, 10 doses in 12 days of 30 μg of the following molecules were intranasally administered (5 μl per nostril): • Vehicle (VH) (1×PBS) • TAB-NS-ASO4 (NS)(Non-sense sequence directed with tabimorelin) • TAB-SOCS3-ASO4 (SOCS3)(antisense sequence against socs3 mRNA directed with tabimorelin) • TAB-PTP1B-ASO4 (PTP1B)(antisense sequence against ptp1b mRNA directed with tabimorelin
Body weight and food intake were daily monitored. 48 hours after the last administration animals were sacrificed and tissues collected for further analysis.

d = 2'-deoxy (DNA); m = 2'-O-methyl

Sequence of human recombinant GHS-R1a (Q92847 whole entry): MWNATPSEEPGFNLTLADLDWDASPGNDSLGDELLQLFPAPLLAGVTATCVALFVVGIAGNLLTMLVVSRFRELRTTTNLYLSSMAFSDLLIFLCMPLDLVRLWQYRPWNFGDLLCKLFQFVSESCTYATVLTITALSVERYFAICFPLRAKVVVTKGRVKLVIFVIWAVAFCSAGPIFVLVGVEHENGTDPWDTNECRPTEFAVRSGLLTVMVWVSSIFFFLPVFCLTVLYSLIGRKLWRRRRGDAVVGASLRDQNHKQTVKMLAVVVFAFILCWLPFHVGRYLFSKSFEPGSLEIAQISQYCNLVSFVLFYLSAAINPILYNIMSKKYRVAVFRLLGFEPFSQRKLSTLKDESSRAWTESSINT

For the compound `CNC(=O)[C@@H](Cc1ccccc1)N(C)C(=O)[C@@H](Cc1ccc2ccccc2c1)N(C)C(=O)/C=C/CC(C)(C)N` [Tabimorelin], the Ki – broadly, the equilibrium dissociation constant of an inhibitor or competing ligand from its target – in data set [1] was 50 nM. Besides, the EC50 (usually the concentration giving half of the maximal effect) with rat pituitary cells is 2.7 nM.
In the case of “TAB-SOCS3-ASO4: antisense sequence against socs3 mRNA directed with tabimorelin; 20-mer with 10 DNA core and 2′-o-methyl flanks (antisense GUGGCGCTGGTCCGAGCTGT; sugars from the 5' end m5 d10 m5, backbone and methylation of C not given here; tabimorelin conjugate attached)”, the “Daily BW gain (mean of changes in daily body weight)” value in data set [2] is listed as “not being significantly different between groups, a decrease was observed”. In data set [2] (vs VH and NS), the “Cumulative body weight (BW) gain” value is on record as “gained significantly less weight than control animals”, the “Cumulative food intake (FI)” value was “significantly decreased” and the “Daily FI (mean of daily food ingestion)” value is “decreased”.
